The subject of assay [1] is Staphylococcus aureus ATCC 29213 (MSSA). Nature of the assay: minimum inhibitory concentration; extreme values may be limits of the assay. An outline of the steps:
(§1)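 Methicillin-susceptible and methicillin-resistant Staphylococcus aureus were assessed by broth microdilution with a resazurin read-out, compounds spanning 0 to 100 µM and incubated for 24 h at 37°C before 30 µl of 0.015% resazurin was added for 2–4 h. For the minimum inhibitory concentration, the lowest concentration whose well stayed blue rather than pink was recorded.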

The subject of assay [2] is Staphylococcus aureus ATCC 700699 (MRSA). The assay is described as above. An outline of the steps: as §1

The structures appear in SMILES notation. Values after ≈ are worked out from the molar mass of the structure shown. Some results are limits rather than exact numbers.

Turning to `CCS(=O)(=O)N(Cc1ccco1)Cc1cc2ccc(C)cc2nc1O`, the minimum inhibitory concentration in assay [1] and in assay [2] was greater than 50 µM each time.
For `CC1(C)OB(O)c2ccc(C3=NOC(c4cc(Cl)c(F)c(Cl)c4)(C(F)(F)F)C3)cc21` (stereo unspecified), the minimum inhibitory concentration in assay [1] and in assay [2] was 6.25 µM (≈ 2.89 µg/mL) throughout.
With `CN1CCCN(C(c2ccccc2)c2ccc(Cl)cc2)CC1` (stereo unspecified), the minimum inhibitory concentration in assay [1] and in assay [2] was greater than 50 µM in each case.
As to `O=C(c1[nH]nc2c1CCCC2)N1CCN(Cc2ccc3c(c2)OCO3)CC1`, the minimum inhibitory concentration in assay [1] and in assay [2] was greater than 50 µM in each case.
In the case of `Cc1cc(C)c2cc(C(=O)NC3CCCCCCC3)[nH]c2c1`, the minimum inhibitory concentration in assay [1] and in assay [2] was greater than 50 µM throughout.
Turning to `Cn1ncc2c(N3CCOCC3)nc(NCCc3c[nH]c4ccccc34)nc21`, the minimum inhibitory concentration in assay [1] and in assay [2] was greater than 50 µM in each case.
In the case of `CNc1cc(C)nc(C2CN(C(=O)c3n[nH]c4ccccc34)CCO2)c1` (stereo unspecified), the minimum inhibitory concentration in assay [1] and in assay [2] was greater than 50 µM each time.
For the compound `Brc1c(-c2ccc3c(c2)OCO3)nc2ncccn12`, the minimum inhibitory concentration in assay [1] and in assay [2] was greater than 50 µM throughout.
Turning to `COC(=O)C1=C(C)NC(C)=C(C(=O)OC(C)C)C1c1cccc2nonc12` (stereo unspecified), the minimum inhibitory concentration in assay [1] and in assay [2] was greater than 50 µM throughout.
For `NCCCC(N)(C(=O)O)C(F)F` (stereo unspecified), the minimum inhibitory concentration in assay [1] and in assay [2] was greater than 50 µM throughout.
On to `NCC(c1cccs1)S(=O)(=O)c1ccccc1` (stereo unspecified), for which the minimum inhibitory concentration in assay [1] and in assay [2] was greater than 50 µM each time.
Turning to `COc1ccc(-c2onc(C(F)(F)F)c2-c2ccc(Cl)cc2)c(O)c1`, the minimum inhibitory concentration in assay [1] and in assay [2] was greater than 50 µM throughout.
For `c1ccc(Oc2ccc(-c3cc(C4CCOCC4)[nH]n3)cc2)cc1`, the minimum inhibitory concentration in assay [1] and in assay [2] was greater than 50 µM each time.
`O=C(NCc1ccoc1)N1CCN(Cc2ccc3c(c2)OCO3)CC1`: the minimum inhibitory concentration in assay [1] and in assay [2] was greater than 50 µM each time.
Regarding `Cc1nc(-c2cccc(NCc3ccccc3)c2)[nH]c1C`, the minimum inhibitory concentration in assay [1] and in assay [2] was 50 µM (≈ 13.9 µg/mL) each time.
`CNC(=O)C1Cc2ccccc2N1C(=O)Cc1ccc(F)cc1` (stereo unspecified): the minimum inhibitory concentration in assay [1] and in assay [2] was greater than 50 µM throughout.
Regarding `O=C(NCCc1ccn(-c2ccccc2)n1)C1CCCCC1`, the minimum inhibitory concentration in assay [1] and in assay [2] was greater than 50 µM in each case.
As to `CCOc1ccc(-c2nc(NC(=O)CS(=O)(=O)c3ccccc3)sc2C)cc1`, the minimum inhibitory concentration in assay [1] and in assay [2] was greater than 50 µM each time.
Regarding `NC(=O)c1cc(Br)ccc1OCCOc1ccccc1`, the minimum inhibitory concentration in assay [1] and in assay [2] was greater than 50 µM in each case.
Regarding `COc1ccc(N(CCc2cccc(C)n2)C(C)=O)cc1`, the minimum inhibitory concentration in assay [1] and in assay [2] was greater than 50 µM throughout.
Consider `c1ccc(Oc2ccc(-c3cc(N4CCOCC4)[nH]n3)cc2)cc1`, for which the minimum inhibitory concentration in assay [1] and in assay [2] was greater than 50 µM throughout.
Turning to `O=C(Nc1ccc2c(c1)B(O)OC2)c1ccccc1C(F)(F)F`, the minimum inhibitory concentration in assay [1] and in assay [2] was greater than 50 µM in each case.
With `Cc1c[nH]c(CCNC(=O)c2cc(-c3ccc(Cl)cc3)cs2)n1`, the minimum inhibitory concentration in assay [1] and in assay [2] was greater than 50 µM in each case.
On to `COc1ccc(C2=NCCN2)cc1-c1cn(-c2cccc(C3=NCCN3)c2)nn1`, for which the minimum inhibitory concentration in assay [1] and in assay [2] was greater than 50 µM each time.
Regarding `Cc1cccc(-c2nc(Nc3ccncn3)c3sccc3n2)n1`, the minimum inhibitory concentration in assay [1] and in assay [2] was greater than 50 µM throughout.
Regarding `O=C(C1CCN(c2nnc(-n3cccc3)s2)CC1)N1CCC(Cc2ccccc2)CC1`, the minimum inhibitory concentration in assay [1] and in assay [2] was greater than 50 µM throughout.
For `Cc1ccc(S(=O)(=O)N2CCN(C(=O)c3cc(-c4ccccc4)n[nH]3)CC2)cc1`, the minimum inhibitory concentration in assay [1] and in assay [2] was greater than 50 µM in each case.
Turning to `COC(=O)c1ccc(F)cc1NS(=O)(=O)c1cccc(-c2cnn(Cc3ccccc3)c2)c1`, the minimum inhibitory concentration in assay [1] and in assay [2] was greater than 50 µM throughout.
As to `O=C1N(Cc2cc3ccccc3s2)CC2CN(Cc3ccccc3)CCN12` (stereo unspecified), the minimum inhibitory concentration in assay [1] and in assay [2] was greater than 50 µM each time.
`O=C([C@@H](c1ccc(Cl)cc1)c1cccnc1)N1CCN(c2ccc(C(F)(F)F)cc2)CC1`: the minimum inhibitory concentration in assay [1] and in assay [2] was 50 µM (≈ 23 µg/mL) in each case.
Consider `COc1cc(C(F)(F)F)nc2ccc(C)c(N)c12`, for which the minimum inhibitory concentration in assay [1] and in assay [2] was greater than 50 µM in each case.
Consider `CC[C@@H]([C@H](C)O)n1ncn(-c2ccc(N3CCN(c4ccc(OC[C@@H]5CO[C@@](Cn6cncn6)(c6ccc(F)cc6F)C5)cc4)CC3)cc2)c1=O`, for which the minimum inhibitory concentration in assay [1] and in assay [2] was greater than 50 µM throughout.
As to `C[C@H]1c2cccc(O)c2C(=O)C2=C(O)[C@]3(O)C(=O)C(C(N)=O)=C(O)[C@@H](N(C)C)[C@@H]3[C@@H](O)[C@@H]21`, the figures for the minimum inhibitory concentration in assay [1] and in assay [2] were 0.781 µM (≈ 0.347 µg/mL) and 25 µM (≈ 11.1 µg/mL), respectively.
Turning to `CC(=O)N(CCN(C(=O)c1ccc(F)cc1)c1ccccc1)c1ccccc1`, the minimum inhibitory concentration in assay [1] and in assay [2] was greater than 50 µM each time.
As for `Oc1c(I)cc(I)c2cccnc12`, the minimum inhibitory concentration was greater than 50 µM in assay [1] and 50 µM (≈ 19.8 µg/mL) in assay [2].
The matching figures for `CNC1C(OC2C(OC3C(O)C(O)C(N=C(N)N)C(O)C3N=C(N)N)OC(C)C2(O)C=O)OC(CO)C(O)C1O` (stereo unspecified): greater than 50 µM and greater than 50 µM.
The matching figures for `Nc1ncnc2c1ncn2[C@@H]1O[C@H](COS(=O)(=O)NC(=O)c2ccccc2O)[C@@H](O)[C@H]1O`: greater than 50 µM and greater than 50 µM.
On the same counts, the results for `CCc1ccc([C@@H]2C[C@H](C(F)(F)F)n3ncc(C(=O)NCc4ccc(OC)cc4)c3N2)cc1` are greater than 50 µM and greater than 50 µM.
Consider `CCCNC(=O)N1CCC2(CC1)CC(=O)c1cc(C)ccc1O2`, for which the minimum inhibitory concentration in assay [1] and in assay [2] was greater than 50 µM throughout.
`Nc1ccc2ncnc(Nc3ccc(OCc4cccc(F)c4)c(Cl)c3)c2c1`: the minimum inhibitory concentration in assay [1] and in assay [2] was greater than 50 µM in each case.
`Nc1ncnc2c1c(-c1cnc3ccccc3c1)nn2CC1CCNCC1`: the minimum inhibitory concentration in assay [1] and in assay [2] was greater than 50 µM in each case.
As for `Cc1cccc(NC(=O)c2cc(S(=O)(=O)N(C)c3ccc(F)cc3)ccc2Cl)n1`, the minimum inhibitory concentration in assay [1] and in assay [2] was greater than 50 µM in each case.
Turning to `C[C@]1(COc2ccc(N3CCC(Oc4ccc(OC(F)(F)F)cc4)CC3)cc2)Cn2cc([N+](=O)[O-])nc2O1`, the minimum inhibitory concentration in assay [1] and in assay [2] was greater than 50 µM each time.
As to `CCOc1ccc(-c2nc(CNCCc3ccc(F)cc3)cs2)cc1`, the minimum inhibitory concentration in assay [1] and in assay [2] was greater than 50 µM throughout.
Consider `Cc1nn(Cc2ccccc2)c(Cl)c1C(=O)NC1CCCCCC1`, for which the minimum inhibitory concentration in assay [1] and in assay [2] was greater than 50 µM in each case.
Turning to `CCc1nc2ccc(C(=O)NCc3ccc4c(c3)OCO4)cn2c1N(C)Cc1cccs1`, the minimum inhibitory concentration in assay [1] and in assay [2] was greater than 50 µM in each case.
With `COc1ccc(-c2cnc3ccc(NCc4ccc(S(N)(=O)=O)cc4)nn23)cn1`, the minimum inhibitory concentration in assay [1] and in assay [2] was greater than 50 µM each time.
As to `Nc1ccc(C(=O)Nc2ccc(-c3nc4ccccc4o3)cc2)cc1`, the minimum inhibitory concentration in assay [1] and in assay [2] was greater than 50 µM throughout.
Take `CC(C)(C)n1nc(-c2ccccc2)c2c(N)ncnc21`: the minimum inhibitory concentration in assay [1] and in assay [2] was greater than 50 µM in each case.
As for `CC(C)(C)c1ccc(N[C@@H]2CCCC[C@H]2NC(=O)c2ccco2)cc1`, the minimum inhibitory concentration in assay [1] and in assay [2] was greater than 50 µM throughout.
Take `CC(=O)NCC1CN(c2ccc(-c3ccc(CNCc4cn[nH]n4)cc3)c(F)c2)C(=O)O1` (stereo unspecified): the minimum inhibitory concentration in assay [1] and in assay [2] was 6.25 µM (≈ 2.74 µg/mL) in each case.
With `COc1cccc2c(C)nc(N=C(N)N)nc12`, the minimum inhibitory concentration in assay [1] and in assay [2] was greater than 50 µM throughout.
For `CS(=O)(=O)N1CCC(CCn2nc(Cc3cccc4ccccc34)c3c(N)ncnc32)CC1`, the minimum inhibitory concentration in assay [1] and in assay [2] was greater than 50 µM in each case.
With `COc1ccc(Oc2ccc([C@@H](C)N(C)c3ncc4c(N)nc(N)nc4n3)cc2)cc1`, the minimum inhibitory concentration in assay [1] and in assay [2] was greater than 50 µM each time.
Take `O=C(COc1cccc(F)c1)Nc1nc(-c2ccccn2)cs1`: the minimum inhibitory concentration in assay [1] and in assay [2] was greater than 50 µM throughout.
On to `CCOC(=O)c1c(NC(=O)c2c(F)c(F)c(F)c(F)c2F)sc(C(N)=O)c1C`, for which the minimum inhibitory concentration in assay [1] and in assay [2] was greater than 50 µM throughout.
For the compound `CCOc1ccc(OCC(=O)Nc2cc(C)cc(C)c2)cc1`, the minimum inhibitory concentration in assay [1] and in assay [2] was greater than 50 µM in each case.
Consider `O=C1Nc2ccc(Br)cc2C12NCCc1c2[nH]c2ccccc12` (stereo unspecified), for which the minimum inhibitory concentration in assay [1] and in assay [2] was greater than 50 µM throughout.

Values taken from the supplement of paper PMC6206229.
